Source: PubChem BioAssay (NCI)
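Results reflect a 48-hour exposure of cells in 96-well plates to compound at five concentrations. TGI: total growth inhibition.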

Tests used:
Assay in all cases: NCI anticancer screen, dose series, 48 h
[1] = test system: NCI-H23 lung
[2] = test system: MOLT-4 leukemia
[3] = test system: HL-60(TB) leukemia
[4] = test system: CCRF-CEM leukemia
[5] = test system: A549 NSCLC
[6] = test system: MDA-MB-231 breast
[7] = test system: SF-295 CNS
[8] = test system: HS 578T breast
[9] = test system: SN12C renal
[10] = test system: MCF7 breast
[11] = test system: M14 melanoma
[12] = test system: SK-OV-3 ovarian
[13] = test system: SK-MEL-28 melanoma
[14] = test system: NCI-H226 lung
[15] = test system: RXF 393 renal
[16] = test system: SNB-19 CNS
[17] = test system: NCI/ADR-RES ovarian
[18] = test system: UACC-257 melanoma
[19] = test system: BT-549 breast
[20] = test system: UO-31 renal
[21] = test system: CAKI-1 renal
[22] = test system: OVCAR-4 ovarian
[23] = test system: UACC-62 melanoma
[24] = test system: KM12 colon
[25] = test system: 786-0 renal
[26] = test system: K-562 leukemia
[27] = test system: HOP-92 NSCLC
[28] = test system: EKVX NSCLC
[29] = test system: OVCAR-8 ovarian
[30] = test system: ACHN renal
[31] = test system: SR leukemia
[32] = test system: SF-268 CNS
[33] = test system: SK-MEL-2 melanoma
[34] = test system: NCI-H522 lung
[35] = test system: U251 CNS
[36] = test system: NCI-H460 lung
[37] = test system: MDA-N
[38] = test system: COLO 205 colon
[39] = test system: HCT-116 colon
[40] = test system: DU-145 prostate
[41] = test system: HT29 colon
[42] = test system: OVCAR-5 ovarian
[43] = test system: SNB-75 CNS
[44] = test system: HCC-2998 colon
[45] = test system: HCT-15 colon
[46] = test system: MDA-MB-435
[47] = test system: T-47D breast
[48] = test system: OVCAR-3 ovarian
[49] = test system: SW-620 colon
[50] = test system: SK-MEL-5 melanoma
[51] = test system: SF-539 CNS
[52] = test system: TK-10 renal
[53] = test system: MALME-3M melanoma
[54] = test system: PC-3 prostate
[55] = test system: A498 renal
[56] = test system: RPMI-8226 leukemia
[57] = test system: LOX IMVI melanoma
[58] = test system: IGROV1 ovarian

`CCOC(=O)C(NC(=O)c1ccco1)(Nc1nc2ccc(OCC)cc2s1)C(F)(F)F` (stereo unspecified) showed a TGI [1] greater than 100 µM, a TGI [2] greater than 100 µM and a TGI [3] greater than 100 µM. The TGI [4] was greater than 100 µM, the TGI [5] was greater than 100 µM and the TGI [6] was greater than 100 µM. The TGI [7] was greater than 100 µM, the TGI [8] was greater than 100 µM and the TGI [9] was greater than 100 µM. It also gave a TGI [10] of 78.8 µM, a TGI [11] greater than 100 µM and a TGI [12] greater than 100 µM. For the same molecule, the TGI [13] was greater than 100 µM, the TGI [14] was greater than 100 µM and the TGI [15] was 30.9 µM. For the same molecule, the TGI [16] was greater than 100 µM, the TGI [17] was greater than 100 µM and the TGI [18] was 76.1 µM. It also gave a TGI [19] greater than 100 µM, a TGI [20] greater than 100 µM and a TGI [21] of 45.8 µM. The TGI [22] was greater than 100 µM, the TGI [23] was greater than 100 µM and the TGI [24] was 98.3 µM. The TGI [25] was 68.4 µM, the TGI [26] was greater than 100 µM and the TGI [27] was 47.5 µM. The TGI [28] was greater than 100 µM, the TGI [29] was greater than 100 µM and the TGI [30] was 82.3 µM. It also gave a TGI [31] of 88.5 µM, a TGI [32] greater than 100 µM and a TGI [33] greater than 100 µM. It also gave a TGI [34] greater than 100 µM, a TGI [35] greater than 100 µM and a TGI [36] greater than 100 µM. For the same molecule, the TGI [37] was 60 µM, the TGI [38] was 46.4 µM and the TGI [39] was 91.2 µM. The TGI [40] was greater than 100 µM, the TGI [41] was greater than 100 µM and the TGI [42] was greater than 100 µM. The TGI [43] was 70.7 µM, the TGI [44] was greater than 100 µM and the TGI [45] was greater than 100 µM. For the same molecule, the TGI [46] was 80.2 µM, the TGI [47] was greater than 100 µM and the TGI [48] was greater than 100 µM. It also gave a TGI [49] greater than 100 µM, a TGI [50] of 47.8 µM and a TGI [51] greater than 100 µM. The TGI [52] was greater than 100 µM, the TGI [53] was greater than 100 µM and the TGI [54] was 93 µM.
`C(=N\NC1=NCCN1)/c1ccc(-c2cn3cc(/C=N/NC4=NCCN4)ccc3n2)cc1` gave a TGI [1] greater than 100 µM, a TGI [2] greater than 37.4 µM and a TGI [3] of 19.7 µM. The TGI [4] was 25.1 µM, the TGI [5] was 38.1 µM and the TGI [6] was 34.6 µM. The TGI [7] was greater than 70.1 µM, the TGI [8] was greater than 100 µM and the TGI [9] was greater than 63.1 µM. The TGI [55] was greater than 100 µM, the TGI [10] was greater than 100 µM and the TGI [11] was greater than 62.6 µM. For the same molecule, the TGI [12] was greater than 100 µM, the TGI [14] was greater than 100 µM and the TGI [15] was greater than 100 µM. The TGI [16] was greater than 61.8 µM, the TGI [17] was greater than 100 µM and the TGI [18] was greater than 100 µM. It also gave a TGI [19] of 52.9 µM, a TGI [20] of 99.8 µM and a TGI [21] of 49.4 µM. The TGI [22] was greater than 100 µM, the TGI [23] was greater than 100 µM and the TGI [24] was greater than 100 µM. It also gave a TGI [25] greater than 66.4 µM, a TGI [26] of 42.5 µM and a TGI [27] of 43.2 µM. For the same molecule, the TGI [28] was greater than 92.4 µM, the TGI [29] was greater than 55 µM and the TGI [30] was greater than 100 µM. For the same molecule, the TGI [31] was 13.5 µM, the TGI [32] was greater than 66.1 µM and the TGI [33] was greater than 100 µM. It also gave a TGI [56] greater than 100 µM, a TGI [34] greater than 100 µM and a TGI [35] greater than 64.9 µM. The TGI [36] was greater than 45.8 µM, the TGI [57] was greater than 52.5 µM and the TGI [37] was greater than 100 µM. The TGI [38] was greater than 100 µM, the TGI [39] was greater than 62.4 µM and the TGI [40] was 37.7 µM. The TGI [41] was greater than 67.7 µM, the TGI [42] was greater than 100 µM and the TGI [43] was greater than 100 µM. It also gave a TGI [44] greater than 100 µM, a TGI [45] greater than 100 µM and a TGI [46] greater than 79.7 µM. It also gave a TGI [47] greater than 100 µM, a TGI [48] greater than 67 µM and a TGI [49] greater than 100 µM. The TGI [50] was greater than 100 µM, the TGI [51] was greater than 100 µM and the TGI [52] was 56.1 µM. It also gave a TGI [58] greater than 64.5 µM, a TGI [53] greater than 100 µM and a TGI [54] greater than 59.4 µM.
